Results reported in ChEMBL document CHEMBL1146707, “Mechanism-based active site modification of the soybean sterol methyltransferase by 26,27-dehydrocycloartenol” (Bioorg Med Chem Lett, 2004).

Legend:
[1] = Compound (50 uM) and 26,27-DHC for 45 min
[2] = Compound (100 uM) and 26,27-DHC for 45 min
[3] = system: Glycine max; experiment: Catalytic rate constant was evaluated for the soybean sterol methyl transferase (SMT) action
[4] = system: Glycine max; experiment: Michaelis-Menten constant was evaluated for the soybean sterol methyl transferase (SMT) action
[5] = system: Glycine max; experiment: Catalytic competence for soybean sterol methyl transferase (SMT) assay was determined
[6] = Ratio of kcat to kinact for the compound was determined
[7] = Apparent Ki value was calculated; set-up: species or system Glycine max
[8] = system: Glycine max; experiment: Catalytic competence for sterol methyl transferase (SMT) assay was determined
[9] = system: Glycine max; experiment: Maximum rate of inactivation for the soybean sterol methyl transferase (SMT) action was determined

Activity [1] [%] | Activity [2] [%] | k cat [3] [s⁻¹] | Km [4] [µM] | Activity [5] | Ratio [6] | Ki [7] [µM] | Activity [8] | K inact [9] [min⁻¹] | Compound
48 | 33 | 0.01 | 30 | 3e-05 | – | – | – | – | CC(C)=CCCC(C)C1CC[C@@]2(C)C3CCC4C(C)(C)C(O)CCC45CC35CCC12C (some centres not stated)
– | – | – | – | 3e-05 | – | – | – | – | C=C(CCC(C)C1CC[C@@]2(C)C3CCC4C(C)(C)C(O)CCC45CC35CCC12C)C(C)C (some centres not stated)
– | – | 0.0003 | 10 | – | 0.06 | 42 | 3e-05 | 0.29 | CC(CCC=C1CC1)C1CC[C@@]2(C)C3CCC4C(C)(C)C(O)CCC45CC35CCC12C (some centres not stated)
